Laboratory results from patent US12280066B2, “Methods and compositions related to glucocorticoid receptor antagonists and breast cancer” (The University of Chicago, priority 2010, dated 2025).

Experiments:
[1] = test system: T-R MCF-7 (ER+/PR+/GR+) cells; experiment: Annexin V FACS apoptosis assay, T-R MCF-7 cells; type: cell-based; settings: mifepristone/paclitaxel 10^-6 M compared to paclitaxel alone, 20 hours, P=0.028
Method: (§1) Apoptosis was measured using FITC conjugated-anti-Annexin V antibody labeling followed FACS analysis to determine the percentage of the total cell population undergoing apoptosis after 20 hours of treatment.

[2] = test system: Parental MCF-7 (ER+/PR+/GR+) cells; experiment: Annexin V FACS apoptosis assay, parental MCF-7 cells; type: cell-based; settings: mifepristone/paclitaxel 10^-6 M compared to paclitaxel alone, 20 hours
Method: as §1

[3] = test system: glucocorticoid receptor (GR); settings: literature (Moran et al., 2000; Mikosz et al., 2001); cited from earlier work
[4] = test system: MDA-MB-231 human breast cancer cells; experiment: MDA-MB-231 xenograft tumor volume in SCID mice; settings: mifepristone 15 mg/kg i.p. two hours prior to paclitaxel 10 mg/kg, five successive days, compared to paclitaxel alone, P=0.013

## CC#C[C@]1(O)CC[C@H]2[C@@H]3CCC4=CC(=O)CCC4=C3[C@@H](c3ccc(N(C)C)cc3)C[C@@]21C [mifepristone]
[1]
  apoptosis (percentage of total cell population undergoing apoptosis): Significantly more apoptosis
[1]; listed as Mifepristone
  apoptosis (percentage of total cell population undergoing apoptosis): increases
[2]
  apoptosis (percentage of total cell population undergoing apoptosis): No difference
[2]; listed as Mifepristone
  apoptosis (percentage of total cell population undergoing apoptosis): not parental MCF-7
[3]
  reversal of GR-initiated cell survival signaling: reverses cell survival signaling pathways initiated by the GR
[4]
  tumor volume over time: increases MDA-MB-231 tumor susceptibility to paclitaxel
[4]; listed as Mifepristone
  tumor volume over time: significantly decreased tumor volume over time
